Test results taken from ChEMBL document CHEMBL1155094, “Isosteric exchange of the acylsulfonamide moiety in Abbott's Bcl-XL protein interaction antagonist” (Bioorg Med Chem Lett, 2008).

Biological target: T1, Bcl-2-like protein 2 (Homo sapiens, UniProt Q92843)
T1 sequence (Q92843 whole entry): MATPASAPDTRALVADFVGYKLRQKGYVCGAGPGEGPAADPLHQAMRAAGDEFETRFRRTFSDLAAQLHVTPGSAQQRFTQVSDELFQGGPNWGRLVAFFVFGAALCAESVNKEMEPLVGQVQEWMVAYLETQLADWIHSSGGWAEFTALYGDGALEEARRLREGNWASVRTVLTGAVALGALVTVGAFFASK
Experiment: Inhibition of 5-carboxyfluorescein-labeled Flu-Bak-BH3 peptide binding to Bcl-w by fluorescence polarization assay

Row | Compound | Ki [µM]
1 | CN(CC(=O)Nc1ccc(N2CCCCC2)c([N+](=O)[O-])c1)C(=O)c1ccc(-c2ccccc2)cc1 | 10.8
2 | CN(CC(=O)Nc1ccc(NC23CC4CC(CC(C4)C2)C3)c([N+](=O)[O-])c1)C(=O)c1ccc(-c2ccccc2)cc1 | 9.43
3 | CN(CC(=O)Nc1ccc(N2CCSCC2)c([N+](=O)[O-])c1)C(=O)c1ccc(-c2ccccc2)cc1 | 13
